Experiments:
[1] = tested on: Y537N mutant ERα receptor; assay: PRα inhibition (ERα functional antagonism) cell assay in MCF7-ESR1 Y537N 682 CRISPR cells; assay type: cell-based; settings: Homo sapiens; MCF7-ESR1 Y537N 682 cells, 72 hours, n=14; read-out: Relative IC50 (nM), PRα inhibition
Text: The purpose of the following PRα inhibition (ERα functional antagonism) cell assay is to determine the antagonistic activity of a test compound against the Y537N mutant ERα receptor. An antagonist in this assay is expected to block the function of the ERα receptor.
Culture MCF7-ESR1 Y537N-682 (generated by CRISPR/Cas9 gene editing of ESR1 gene in MCF7 cells, clone #682) in DMEM media supplemented with 10% FBS and 1% penicillin/streptomycin antibiotics and plate the cells (prior to becoming 70% confluent) in 384-well flat-bottom plates at a density of 4,000 cells per well in DMEM phenol red free media 10% FBS (20 μL volume) (charcoal stripped). Incubate the cells overnight in a cell culture incubator (5% CO2, 95% relative humidity and 37° C.) and allow the cells to attach to the plate. The following day dose the cells with the test compound. Use an Echo 555 acoustic dispenser to prepare compound serial dilutions (1:3) in a range from 6 μM to 0.0003 μM. […]
The following day, wash the cells with PBS […] (2×20 μL) and incubate with secondary antibody (20 μL/well) (1:1000 dilution, Goat anti-rabbit IgM ALEXA FLUOR™ 488) in PBS 1% BSA for 105 minutes at room temperature. […] Scan the plates with ACUMEN EXPLORER™ [Laser-scanning fluorescence microplate cytometer manufactured by TTP LABTECH LTD] to measure progesterone receptor alpha. […]

ERα receptor = assay: PRα inhibition (ERα functional antagonism) cell assay in MCF7 cells; assay type: cell-based; settings: Homo sapiens, pretreated with 0.47 nM estradiol, n=15, read-out: Relative IC50 (nM), PRα inhibition
Text: The purpose of the following PRα inhibition (ERα functional antagonism) cell assay is to determine the antagonistic activity of a test compound against the ERα receptor. An antagonist in this assay is expected to block the function of the ERα receptor.
Carry out the assay conditions as detailed in the ERα degradation Cell base Acumen assay above, using the MCF7 cell line except that, prior to test compound dispensing, remove the media from the cell plate and pretreat all wells except for the negative control wells (column 24 of the plate) with assay media containing 0.47 nM estradiol for 30 minutes. In this assay, carry out immunostaining for the detection of PRα and scan the plates with ACUMEN EXPLORER™ [Laser-scanning fluorescence microplate cytometer manufactured by TTP LABTECH LTD] to measure PRα. Image analysis is based on cellular fluorescent signals for identifying positive cells. Identify PRα positive cells by mean intensity. Use total intensity at 575-640 from propidium iodide/DNA to identify individual cells. Assay output is % PRα positive cells. Determine the IC50 by curve fitting to a four parameter logistic for each output using GENE DATA™.

- IC50 [1]: 7.6 ± 4.8 nM
- IC50 (ERα receptor): 15.8 ± 9.04 nM
SMILES: O=C(c1ccc(OCCN2CC(CF)C2)cc1)c1c(-c2ccc(C(F)(F)F)cc2F)cnc2cc(O)ccc12 [Example 1, (4-{2-[3-(Fluoromethyl)azetidin-1-yl]ethoxy}phenyl){3-[2-fluoro-4-(trifluoromethyl)phenyl]-7-hydroxyquinolin-4-yl}methanone]
